In US11878975B2, “Substituted indole compounds useful as TLR inhibitors” (BRISTOL-MYERS SQUIBB COMPANY, priority 2017, dated 2024):

Experiments:
Assay type in all cases: cell-based
human TLR7 = molecular target: T1, human TLR7 (Homo sapiens, UniProt Q9NYK1); assay: TLR7 inhibition reporter assay (HEK-Blue cells, SEAP reporter, gardiquimod stimulation); settings: HEK-Blue cells overexpressing human TLR7, SEAP reporter, gardiquimod 7.5 μM
T1 construct: host or cells: HEK-Blue cells
T1 sequence (Q9NYK1 27-1049): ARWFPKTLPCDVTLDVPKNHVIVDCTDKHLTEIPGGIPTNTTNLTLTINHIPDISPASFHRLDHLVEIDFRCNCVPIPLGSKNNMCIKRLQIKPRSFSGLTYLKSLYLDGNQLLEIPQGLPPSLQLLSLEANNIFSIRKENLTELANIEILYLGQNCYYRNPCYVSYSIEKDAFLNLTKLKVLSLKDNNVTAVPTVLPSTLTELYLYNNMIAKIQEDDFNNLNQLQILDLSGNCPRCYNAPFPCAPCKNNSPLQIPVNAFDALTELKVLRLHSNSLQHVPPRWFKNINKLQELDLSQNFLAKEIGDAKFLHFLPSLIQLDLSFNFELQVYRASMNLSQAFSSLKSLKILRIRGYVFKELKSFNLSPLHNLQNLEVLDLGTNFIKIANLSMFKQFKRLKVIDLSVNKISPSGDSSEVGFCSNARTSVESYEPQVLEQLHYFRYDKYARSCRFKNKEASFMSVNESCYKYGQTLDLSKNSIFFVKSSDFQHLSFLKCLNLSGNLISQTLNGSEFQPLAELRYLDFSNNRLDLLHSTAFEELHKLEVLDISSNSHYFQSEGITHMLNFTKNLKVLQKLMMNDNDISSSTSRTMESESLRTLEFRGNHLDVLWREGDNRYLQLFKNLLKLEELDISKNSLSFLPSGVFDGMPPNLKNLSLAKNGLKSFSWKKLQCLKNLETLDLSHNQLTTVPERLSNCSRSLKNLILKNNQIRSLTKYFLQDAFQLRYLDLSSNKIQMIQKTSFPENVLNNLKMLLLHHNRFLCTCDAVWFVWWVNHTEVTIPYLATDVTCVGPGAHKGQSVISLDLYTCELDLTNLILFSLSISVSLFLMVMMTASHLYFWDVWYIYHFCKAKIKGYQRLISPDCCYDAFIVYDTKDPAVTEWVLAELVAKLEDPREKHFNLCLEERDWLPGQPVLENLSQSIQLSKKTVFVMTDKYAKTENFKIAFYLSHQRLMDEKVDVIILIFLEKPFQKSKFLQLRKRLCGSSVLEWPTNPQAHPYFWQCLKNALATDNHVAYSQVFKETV
Method in brief: (§1)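 Percent inhibition is derived from SEAP signal, scaled between agonist-plus-DMSO wells and wells given a known inhibitor. Test compounds (0.05 nM–50 μM) are pre-incubated 30 min at room temperature before agonist addition (TLR7: 7.5 μM gardiquimod; TLR8: 15.9 μM R848; TLR9: 5 nM ODN2006) and 22 h culture at 37 °C.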

human TLR9 = molecular target: T2, human TLR9 (Homo sapiens, UniProt Q9NR96); assay: TLR9 inhibition reporter assay (HEK-Blue cells, SEAP reporter, ODN2006 stimulation); settings: HEK-Blue cells overexpressing human TLR9, SEAP reporter, ODN2006 5 nM
T2 construct: host or cells: HEK-Blue cells
T2 sequence (Q9NR96 26-1032): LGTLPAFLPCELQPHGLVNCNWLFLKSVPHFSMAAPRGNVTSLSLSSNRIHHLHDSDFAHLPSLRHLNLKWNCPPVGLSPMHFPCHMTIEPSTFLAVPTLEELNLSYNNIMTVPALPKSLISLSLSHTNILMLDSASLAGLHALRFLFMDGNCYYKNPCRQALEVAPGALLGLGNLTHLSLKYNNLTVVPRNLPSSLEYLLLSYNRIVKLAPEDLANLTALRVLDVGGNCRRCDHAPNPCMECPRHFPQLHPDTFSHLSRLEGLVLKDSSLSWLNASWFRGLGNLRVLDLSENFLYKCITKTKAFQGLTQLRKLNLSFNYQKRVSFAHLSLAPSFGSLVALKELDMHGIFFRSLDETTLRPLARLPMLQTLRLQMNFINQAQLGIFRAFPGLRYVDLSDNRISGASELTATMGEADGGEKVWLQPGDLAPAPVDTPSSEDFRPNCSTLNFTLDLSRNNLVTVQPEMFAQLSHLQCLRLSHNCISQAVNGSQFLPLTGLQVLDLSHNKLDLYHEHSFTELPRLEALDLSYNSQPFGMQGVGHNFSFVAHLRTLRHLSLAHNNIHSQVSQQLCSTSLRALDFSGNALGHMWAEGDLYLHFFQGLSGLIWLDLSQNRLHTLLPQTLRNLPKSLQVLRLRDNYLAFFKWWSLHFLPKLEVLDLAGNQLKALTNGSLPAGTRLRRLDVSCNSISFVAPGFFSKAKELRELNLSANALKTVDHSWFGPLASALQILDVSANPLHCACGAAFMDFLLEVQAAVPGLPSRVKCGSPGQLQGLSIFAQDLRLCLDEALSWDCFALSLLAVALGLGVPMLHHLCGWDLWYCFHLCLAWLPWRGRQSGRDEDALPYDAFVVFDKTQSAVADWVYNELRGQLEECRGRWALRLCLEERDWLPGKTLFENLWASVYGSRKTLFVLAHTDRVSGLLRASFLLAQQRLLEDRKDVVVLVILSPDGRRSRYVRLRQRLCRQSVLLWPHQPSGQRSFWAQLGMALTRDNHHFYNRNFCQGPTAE
Method in brief: as §1

human TLR8 = molecular target: T3, human TLR8 (Homo sapiens, UniProt Q9NR97); assay: TLR8 inhibition reporter assay (HEK-Blue cells, SEAP reporter, R848 stimulation); settings: HEK-Blue cells overexpressing human TLR8, SEAP reporter, R848 15.9 μM
T3 construct: host or cells: HEK-Blue cells
T3 sequence (Q9NR97 27-1041): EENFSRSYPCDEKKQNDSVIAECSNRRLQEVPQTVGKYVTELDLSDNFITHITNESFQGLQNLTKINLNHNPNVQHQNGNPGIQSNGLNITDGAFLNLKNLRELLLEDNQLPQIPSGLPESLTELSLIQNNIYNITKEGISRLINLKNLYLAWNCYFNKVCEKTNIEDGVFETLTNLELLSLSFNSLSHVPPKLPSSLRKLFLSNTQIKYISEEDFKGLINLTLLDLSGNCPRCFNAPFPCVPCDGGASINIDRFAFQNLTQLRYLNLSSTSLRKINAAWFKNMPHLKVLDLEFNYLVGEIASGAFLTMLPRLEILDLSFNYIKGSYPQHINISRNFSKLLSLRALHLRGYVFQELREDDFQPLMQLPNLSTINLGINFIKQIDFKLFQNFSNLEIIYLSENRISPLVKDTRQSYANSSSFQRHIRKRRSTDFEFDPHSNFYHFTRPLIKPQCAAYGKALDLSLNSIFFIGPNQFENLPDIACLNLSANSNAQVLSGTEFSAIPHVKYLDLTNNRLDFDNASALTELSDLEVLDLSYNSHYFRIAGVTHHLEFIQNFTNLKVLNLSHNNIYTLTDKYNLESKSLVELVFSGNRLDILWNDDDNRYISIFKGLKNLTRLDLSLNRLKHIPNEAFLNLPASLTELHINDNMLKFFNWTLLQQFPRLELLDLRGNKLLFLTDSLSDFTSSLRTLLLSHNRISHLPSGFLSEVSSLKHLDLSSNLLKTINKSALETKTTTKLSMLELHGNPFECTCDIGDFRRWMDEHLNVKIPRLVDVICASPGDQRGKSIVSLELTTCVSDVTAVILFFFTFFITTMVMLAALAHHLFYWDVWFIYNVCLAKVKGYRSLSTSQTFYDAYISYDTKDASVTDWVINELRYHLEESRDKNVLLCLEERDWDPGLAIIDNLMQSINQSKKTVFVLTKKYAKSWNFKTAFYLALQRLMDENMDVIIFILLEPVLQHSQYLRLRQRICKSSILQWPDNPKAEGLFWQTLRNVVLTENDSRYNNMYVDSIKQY
Method in brief: as §1

Row | SMILES | IC50 (human TLR7) [nM] | IC50 (human TLR9) [nM] | IC50 (human TLR8) [nM]
1 | CCc1c(-c2ccnc(C)c2)[nH]c2ccc(CN)cc12 [Example 394, [3-ethyl-2-(2-methylpyridin-4-yl)-1H-indol-5-yl]methanamine] | 2560 | 2590 | 1080
2 | Cc1c(-c2[nH]c3ccc(C4CCC(NCC(C)(C)O)CC4)cc3c2C(C)C)cn2ncnc2c1C (stereo not drawn) [Example 106] | 0.67 | 1390 | 0.28
3 | Cc1cc(-c2[nH]c3ccc(C4CCCN(C(=O)C5(N)CC5)C4)cc3c2C(C)C)cc(C)n1 (stereo not drawn) [Example 201] | 7 | 19300 | 109
4 | Cc1c(-c2[nH]c3ccc(C4CN(C(=O)CN(C)C)C4)cc3c2C(C)C)cn2ncnc2c1C [Example 564] | 3 | 7310 | 7
5 | COc1cc(-c2[nH]c3ccc(C4CCCN(C(=O)CN(C)C)C4)cc3c2C(C)C)cn2ncnc12 (stereo not drawn) [Example 192] | 0.49 | 2830 | 5.9
6 | COc1ccc(-c2[nH]c3ccc(C4CCCN(CC(=O)N(C)C)C4)cc3c2C(C)C)cc1OC (stereo not drawn) [Example 227] | 156 | 3770 | 51
7 | Cc1cc(-c2[nH]c3ccc(C4CCC(N5CCOCC5)CC4)cc3c2C(C)C)cn2ncnc12 (stereo not drawn) [Example 102] | 0.23 | 1890 | 0.71
8 | CNC(=O)CN1CCCC(c2ccc3[nH]c(-c4cn5ncnc5c(C)c4C)c(C(C)C)c3c2)C1 (stereo not drawn) [Example 232] | 9 | 16300 | 8.1
9 | CNC(=O)CN1CC(c2ccc3[nH]c(-c4cc(OC)c5ncnn5c4)c(C(C)C)c3c2)C1 [Example 263] | 2 | 3620 | 4
10 | COc1cc(-c2[nH]c3ccc(C4CCC(NC5CC5)CC4)cc3c2C(C)C)cn2ncnc12 (stereo not drawn) [Example 10] | 0.17 | 1260 | 0.47
11 | Cc1c(-c2[nH]c3ccc(C4CC(N(C)CCS(C)(=O)=O)C4)cc3c2C(C)C)cn2ncnc2c1C (stereo not drawn) [Example 582] | 3 | 35700 | 0.56
12 | COc1cc(-c2[nH]c3ccc(C4CC(NCCS(C)(=O)=O)C4)cc3c2C(C)C)cn2ncnc12 (stereo not drawn) [Example 571] | 0.53 | 2320 | 0.33
